Among the data in ChEMBL document CHEMBL4190187, “Discovery of pyrazolopyrimidine derivatives as novel inhibitors of ataxia telangiectasia and rad3 related protein (ATR)” (Bioorg Med Chem Lett, 2017) are F and inhibition values, retold here.

One data set concerns Mus musculus. As to the kind of experiment: Oral bioavailability in mouse at 10 mg/kg. It counts as ADME, organism-based. Conditions: in vivo.
Data set [1] has as its system Tyrosine-protein kinase ABL1 (Homo sapiens), P00519 [H396P]. The data set can be described thus: Inhibition of recombinant human Abl H396P mutant (27 to end residues) at 1 uM using EAIYAAPFAKKK as substrate after 40 mins in presence of [gamma-33P]ATP by scintillation counting method.
For data set [2], the target named is Tyrosine-protein kinase ABL1 (Mus musculus) (UniProt P00520). As to the kind of experiment: Inhibition of recombinant mouse Abl (27 to end residues) at 1 uM using EAIYAAPFAKKK as substrate after 40 mins in presence of [gamma-33P]ATP by scintillation counting method.
Data set [3] concerns the target Aurora kinase B (Homo sapiens) (UniProt Q96GD4). As to the kind of experiment: Inhibition of recombinant full-length human Aurora-B at 1 uM using AKRRRLSSLRA as substrate after 40 mins in presence of [gamma-33P]ATP by scintillation counting method.
In data set [4] the target is Serine/threonine-protein kinase Chk1 (Homo sapiens) (UniProt O14757). As to the kind of experiment: Inhibition of recombinant full-length human CHK1 at 1 uM using KKKVSRSGLYRSPSMPENLNRPR as substrate after 40 mins in presence of [gamma-33P]ATP by scintillation counting method.
Data set [5] deals with Serine/threonine-protein kinase Chk2 (Homo sapiens) (UniProt O96017). The data set can be described thus: Inhibition of recombinant human CHK2 (5 to end residues) at 1 uM using KKKVSRSGLYRSPSMPENLNRPR as substrate after 40 mins in presence of [gamma-33P]ATP by scintillation counting method.
Data set [6] has as its target Ephrin type-A receptor 4 (Homo sapiens) (UniProt P54764). The data set can be described thus: Inhibition of recombinant human EPHA4 (601 to 892 residues) at 1 uM using poly(Glu,Tyr) 4:1 as substrate after 40 mins in presence of [gamma-33P]ATP by scintillation counting method.
For data set [7], the target named is Fibroblast growth factor receptor 4 (Homo sapiens) (UniProt P22455). The data set can be described thus: Inhibition of recombinant human FGFR4 (442 to 755 residues) at 1 uM using poly(Glu,Tyr) 4:1 as substrate after 40 mins in presence of [gamma-33P]ATP by scintillation counting method.
Data set [8] addresses Mitogen-activated protein kinase kinase kinase kinase 2 (Homo sapiens) (UniProt Q12851). As to the kind of experiment: Inhibition of recombinant human GCK (1 to 473 residues) at 1 uM using myelin basic protein as substrate after 40 mins in presence of [gamma-33P]ATP by scintillation counting method.
In data set [9] the target is Serine/threonine-protein kinase ICK (Homo sapiens) (UniProt Q9UPZ9). The data set can be described thus: Inhibition of recombinant human ICK (1 to 312 residues) at 1 uM using RRRFRPASPLRGPPK as substrate after 120 mins in presence of [gamma-33P]ATP by scintillation counting method.
Data set [10] has as its target Inhibitor of nuclear factor kappa-B kinase subunit beta (Homo sapiens) (UniProt O14920). As to the kind of experiment: Inhibition of recombinant full-length human IKKbeta at 1 uM using peptide as substrate after 40 mins in presence of [gamma-33P]ATP by scintillation counting method.
Data set [11] addresses Serine/threonine-protein kinase STK11 (Homo sapiens) (UniProt Q15831). The data set can be described thus: Inhibition of recombinant full-length human LKB1 at 1 uM using LSNLYHQGKFLQTFCGSPLYRRR as substrate after 40 mins in presence of [gamma-33P]ATP by scintillation counting method.
Data set [12] deals with Mitogen-activated protein kinase kinase kinase kinase 5 (Homo sapiens) (UniProt Q9Y4K4). As to the kind of experiment: Inhibition of recombinant full-length human MAP4K5 at 1 uM using myelin basic protein as substrate after 40 mins in presence of [gamma-33P]ATP by scintillation counting method.
In data set [13] the target is Mitogen-activated protein kinase 1 (Mus musculus) (UniProt P63085). As to the kind of experiment: Inhibition of recombinant full-length mouse MAPK2 at 1 uM using myelin basic protein as substrate after 40 mins in presence of [gamma-33P]ATP by scintillation counting method.
The test system of data set [14] is Hepatocyte growth factor receptor (Homo sapiens), P08581 [Y1248C]. The data set can be described thus: Inhibition of recombinant human Met Y1248C mutant (974 to end residues) at 1 uM using KKKGQEEEYVFIE as substrate after 40 mins in presence of [gamma-33P]ATP by scintillation counting method.
The target of data set [15] is Mitogen-activated protein kinase kinase kinase 9 (Homo sapiens) (UniProt P80192). As to the kind of experiment: Inhibition of recombinant human MLK1 (134 to 414 residues) at 1 uM using casein as substrate after 40 mins in presence of [gamma-33P]ATP by scintillation counting method.
The target in data set [16] is Serine/threonine-protein kinase 24 (Homo sapiens) (UniProt Q9Y6E0). As to the kind of experiment: Inhibition of recombinant human MST3 (1 to 304 residues) at 1 uM using ERMRPRKRQGSVRRRV as substrate after 40 mins in presence of [gamma-33P]ATP by scintillation counting method.
In data set [17] the target is Serine/threonine-protein kinase Nek11 (Homo sapiens) (UniProt Q8NG66). As to the kind of experiment: Inhibition of recombinant full-length human NEK11 at 1 uM using myelin basic protein as substrate after 40 mins in presence of [gamma-33P]ATP by scintillation counting method.
For data set [18], the target named is Serine/threonine-protein kinase PAK 5 (Homo sapiens) (UniProt Q9P286). The data set can be described thus: Inhibition of recombinant human PAK5 (425 to end residues) at 1 uM using RRRLSFAEPG as substrate after 40 mins in presence of [gamma-33P]ATP by scintillation counting method.
Data set [19] concerns the target Eukaryotic translation initiation factor 2-alpha kinase 3 (Homo sapiens) (UniProt Q9NZJ5). As to the kind of experiment: Inhibition of recombinant human PEK (536 to end residues) at 1 uM using RSRSRSRSRSRSRSR as substrate after 40 mins in presence of [gamma-33P]ATP by scintillation counting method.
Data set [20] has as its target Phosphorylase b kinase gamma catalytic chain, skeletal muscle/heart isoform (Homo sapiens) (UniProt Q16816). As to the kind of experiment: Inhibition of recombinant full-length human PhKgamma1 at 1 uM using KKLNRTLSFAEPG as substrate after 120 mins in presence of [gamma-33P]ATP by scintillation counting method.
The target of data set [21] is Phosphatidylinositol 5-phosphate 4-kinase type-2 alpha (Homo sapiens) (UniProt P48426). The data set can be described thus: Inhibition of recombinant full-length human PIP4K2alpha at 1 uM using phosphatidylinositol 5-phosphate/phosphatidylserine as substrate after 40 mins in presence of [gamma-33P]ATP by scintillation counting method.
Data set [22] has as its target Serine/threonine-protein kinase PRP4 homolog (Homo sapiens) (UniProt Q13523). As to the kind of experiment: Inhibition of recombinant human PRP4 (663 to end residues) at 1 uM using casein as substrate after 120 mins in presence of [gamma-33P]ATP by scintillation counting method.
The target in data set [23] is Serine/threonine-protein kinase TAO1 (Homo sapiens) (UniProt Q7L7X3). The data set can be described thus: Inhibition of recombinant human TAO1 (1 to 327 residues) at 1 uM using myelin basic protein as substrate after 40 mins in presence of [gamma-33P]ATP by scintillation counting method.

Chain of Tyrosine-protein kinase ABL1 (Mus musculus) (P00520 whole entry): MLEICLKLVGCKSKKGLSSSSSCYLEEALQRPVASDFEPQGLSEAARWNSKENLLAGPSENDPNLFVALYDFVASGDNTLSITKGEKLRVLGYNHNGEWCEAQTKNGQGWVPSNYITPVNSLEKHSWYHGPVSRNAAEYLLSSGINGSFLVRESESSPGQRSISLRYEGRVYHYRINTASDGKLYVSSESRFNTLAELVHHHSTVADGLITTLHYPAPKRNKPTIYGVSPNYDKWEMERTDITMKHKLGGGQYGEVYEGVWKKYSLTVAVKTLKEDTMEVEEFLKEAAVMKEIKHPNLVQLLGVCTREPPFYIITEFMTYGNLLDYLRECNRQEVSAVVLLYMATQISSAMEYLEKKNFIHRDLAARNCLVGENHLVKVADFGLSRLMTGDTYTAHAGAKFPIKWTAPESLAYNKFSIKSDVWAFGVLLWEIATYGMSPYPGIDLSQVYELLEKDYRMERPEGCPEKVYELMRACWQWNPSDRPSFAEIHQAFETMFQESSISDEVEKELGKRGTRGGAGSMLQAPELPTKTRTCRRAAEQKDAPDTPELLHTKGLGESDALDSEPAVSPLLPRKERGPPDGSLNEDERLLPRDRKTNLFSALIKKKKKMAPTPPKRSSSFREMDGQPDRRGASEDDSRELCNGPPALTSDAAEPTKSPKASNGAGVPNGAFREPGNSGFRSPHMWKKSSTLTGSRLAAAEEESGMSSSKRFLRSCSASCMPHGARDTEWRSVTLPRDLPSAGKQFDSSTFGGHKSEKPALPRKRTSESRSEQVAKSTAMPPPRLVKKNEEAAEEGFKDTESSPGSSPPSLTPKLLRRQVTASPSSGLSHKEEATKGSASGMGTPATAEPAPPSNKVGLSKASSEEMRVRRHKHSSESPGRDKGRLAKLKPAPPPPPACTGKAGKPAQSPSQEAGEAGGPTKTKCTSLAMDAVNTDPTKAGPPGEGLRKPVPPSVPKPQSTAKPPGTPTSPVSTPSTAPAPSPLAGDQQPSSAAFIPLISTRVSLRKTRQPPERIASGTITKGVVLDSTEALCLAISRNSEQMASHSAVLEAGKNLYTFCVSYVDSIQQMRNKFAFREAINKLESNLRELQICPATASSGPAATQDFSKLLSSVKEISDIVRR
Chain of Ephrin type-A receptor 4 (Homo sapiens) (P54764 whole entry, the tested form may be a part): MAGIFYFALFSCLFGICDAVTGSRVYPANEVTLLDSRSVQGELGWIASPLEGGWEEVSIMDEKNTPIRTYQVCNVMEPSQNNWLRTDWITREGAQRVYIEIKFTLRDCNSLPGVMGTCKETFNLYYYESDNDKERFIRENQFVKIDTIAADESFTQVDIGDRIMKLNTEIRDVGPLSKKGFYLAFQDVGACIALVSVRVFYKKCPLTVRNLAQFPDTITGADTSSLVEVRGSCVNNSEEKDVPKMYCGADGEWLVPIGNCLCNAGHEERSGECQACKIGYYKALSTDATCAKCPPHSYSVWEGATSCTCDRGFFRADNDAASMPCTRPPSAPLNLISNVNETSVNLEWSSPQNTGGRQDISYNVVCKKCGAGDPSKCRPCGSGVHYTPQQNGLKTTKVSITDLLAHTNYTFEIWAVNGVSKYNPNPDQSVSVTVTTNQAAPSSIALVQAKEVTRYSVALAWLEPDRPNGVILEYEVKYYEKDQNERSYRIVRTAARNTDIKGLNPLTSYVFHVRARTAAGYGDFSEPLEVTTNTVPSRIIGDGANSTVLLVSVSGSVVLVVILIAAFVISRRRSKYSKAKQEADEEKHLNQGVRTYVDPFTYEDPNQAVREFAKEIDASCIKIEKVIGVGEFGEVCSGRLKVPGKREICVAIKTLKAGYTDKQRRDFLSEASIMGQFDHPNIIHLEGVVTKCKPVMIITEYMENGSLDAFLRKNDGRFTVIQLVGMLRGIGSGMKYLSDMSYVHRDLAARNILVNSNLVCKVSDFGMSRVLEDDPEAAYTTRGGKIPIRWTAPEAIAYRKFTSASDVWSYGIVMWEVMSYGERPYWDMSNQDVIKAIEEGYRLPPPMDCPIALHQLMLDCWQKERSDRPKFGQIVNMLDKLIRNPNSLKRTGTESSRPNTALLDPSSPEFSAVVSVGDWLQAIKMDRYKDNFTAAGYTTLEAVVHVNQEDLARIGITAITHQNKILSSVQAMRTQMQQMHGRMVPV
Chain of Serine/threonine-protein kinase PRP4 homolog (Homo sapiens) (Q13523 whole entry, the tested form may be a part): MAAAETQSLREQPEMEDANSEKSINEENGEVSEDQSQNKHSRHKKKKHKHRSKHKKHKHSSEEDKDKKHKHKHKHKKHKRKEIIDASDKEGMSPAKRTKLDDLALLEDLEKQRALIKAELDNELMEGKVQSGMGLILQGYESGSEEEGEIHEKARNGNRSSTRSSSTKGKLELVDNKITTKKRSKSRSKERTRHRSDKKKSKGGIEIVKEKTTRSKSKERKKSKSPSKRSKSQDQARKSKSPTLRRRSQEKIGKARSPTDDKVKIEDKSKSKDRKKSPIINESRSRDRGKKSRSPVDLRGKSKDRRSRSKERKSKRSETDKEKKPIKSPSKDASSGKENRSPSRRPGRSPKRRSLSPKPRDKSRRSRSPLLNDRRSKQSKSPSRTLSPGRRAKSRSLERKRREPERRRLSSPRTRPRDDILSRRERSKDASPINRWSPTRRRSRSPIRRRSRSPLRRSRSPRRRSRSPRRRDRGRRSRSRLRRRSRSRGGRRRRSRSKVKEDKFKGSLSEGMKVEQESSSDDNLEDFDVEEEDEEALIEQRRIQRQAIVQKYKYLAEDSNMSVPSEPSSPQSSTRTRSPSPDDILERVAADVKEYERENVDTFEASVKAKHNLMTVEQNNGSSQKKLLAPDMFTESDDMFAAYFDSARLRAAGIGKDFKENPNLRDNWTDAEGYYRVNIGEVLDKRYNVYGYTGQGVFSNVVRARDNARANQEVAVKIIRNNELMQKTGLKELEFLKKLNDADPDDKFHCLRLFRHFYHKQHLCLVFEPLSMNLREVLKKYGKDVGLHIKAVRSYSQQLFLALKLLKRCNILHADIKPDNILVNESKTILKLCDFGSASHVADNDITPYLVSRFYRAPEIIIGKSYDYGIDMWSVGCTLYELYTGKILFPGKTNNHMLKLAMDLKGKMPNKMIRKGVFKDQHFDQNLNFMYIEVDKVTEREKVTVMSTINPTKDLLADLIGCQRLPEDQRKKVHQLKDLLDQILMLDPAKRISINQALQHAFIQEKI
Chain of Serine/threonine-protein kinase Chk2 (Homo sapiens) (O96017 whole entry, the tested form may be a part): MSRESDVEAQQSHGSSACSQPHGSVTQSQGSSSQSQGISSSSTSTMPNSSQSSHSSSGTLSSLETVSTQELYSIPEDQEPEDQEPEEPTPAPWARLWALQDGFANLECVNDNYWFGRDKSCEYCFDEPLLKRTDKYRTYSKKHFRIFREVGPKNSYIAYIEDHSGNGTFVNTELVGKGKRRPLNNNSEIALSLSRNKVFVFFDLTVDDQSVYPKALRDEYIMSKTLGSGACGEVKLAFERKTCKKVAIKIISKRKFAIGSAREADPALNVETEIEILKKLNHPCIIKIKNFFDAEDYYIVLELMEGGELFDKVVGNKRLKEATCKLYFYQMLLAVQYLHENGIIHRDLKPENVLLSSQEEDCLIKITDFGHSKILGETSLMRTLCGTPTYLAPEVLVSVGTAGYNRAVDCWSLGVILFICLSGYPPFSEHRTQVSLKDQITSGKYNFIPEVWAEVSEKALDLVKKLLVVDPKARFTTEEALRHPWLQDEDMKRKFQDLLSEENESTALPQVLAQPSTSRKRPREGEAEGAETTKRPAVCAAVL
Chain of Serine/threonine-protein kinase Chk1 (Homo sapiens) (O14757 whole entry): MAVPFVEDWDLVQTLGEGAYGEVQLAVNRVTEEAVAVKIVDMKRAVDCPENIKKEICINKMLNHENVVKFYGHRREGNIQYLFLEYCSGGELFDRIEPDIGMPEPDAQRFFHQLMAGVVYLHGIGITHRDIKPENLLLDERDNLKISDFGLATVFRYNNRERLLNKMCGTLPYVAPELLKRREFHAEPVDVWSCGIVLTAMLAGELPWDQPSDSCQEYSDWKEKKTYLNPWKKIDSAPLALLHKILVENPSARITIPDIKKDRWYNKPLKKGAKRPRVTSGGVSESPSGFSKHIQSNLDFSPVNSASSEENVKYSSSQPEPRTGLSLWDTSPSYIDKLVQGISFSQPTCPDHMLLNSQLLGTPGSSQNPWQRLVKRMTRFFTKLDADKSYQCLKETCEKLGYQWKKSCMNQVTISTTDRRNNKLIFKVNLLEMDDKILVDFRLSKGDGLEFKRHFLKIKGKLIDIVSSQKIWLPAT
Chain of Serine/threonine-protein kinase ICK (Homo sapiens) (Q9UPZ9 whole entry, the tested form may be a part): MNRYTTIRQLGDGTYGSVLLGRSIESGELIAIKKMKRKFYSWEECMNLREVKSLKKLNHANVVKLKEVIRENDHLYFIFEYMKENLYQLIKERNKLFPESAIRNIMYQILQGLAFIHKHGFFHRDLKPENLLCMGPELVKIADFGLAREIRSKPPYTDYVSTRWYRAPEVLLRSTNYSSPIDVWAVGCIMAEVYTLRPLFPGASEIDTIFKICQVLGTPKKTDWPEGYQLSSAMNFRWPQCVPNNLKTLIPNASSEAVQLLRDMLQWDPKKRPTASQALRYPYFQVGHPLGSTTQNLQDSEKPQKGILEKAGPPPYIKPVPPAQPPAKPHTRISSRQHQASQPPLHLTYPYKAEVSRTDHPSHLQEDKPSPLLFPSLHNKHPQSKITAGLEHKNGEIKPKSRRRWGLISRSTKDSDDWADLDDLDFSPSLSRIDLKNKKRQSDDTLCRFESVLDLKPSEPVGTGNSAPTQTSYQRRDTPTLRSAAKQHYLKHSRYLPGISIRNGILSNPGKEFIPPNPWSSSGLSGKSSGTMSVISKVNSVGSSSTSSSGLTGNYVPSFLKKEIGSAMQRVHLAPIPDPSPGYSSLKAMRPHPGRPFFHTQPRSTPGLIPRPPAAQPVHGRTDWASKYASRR

As to `CS(=O)(=O)c1ccc(-n2nc(-c3cnc4[nH]ccc4c3)c3c(N)ncnc32)cc1`, the F with Mus musculus is listed as 2.83%. In addition, the inhibition was 79% in [1]; 85% in data set [2]; 7% in data set [3]; 2% in data set [4]; -3% in data set [5]; 1% in data set [6]. For the same compound, the inhibition was 3% in data set [7]; 52% in data set [8]; -8% in data set [9]; -3% in [10]; -5% in [11]; 1% in [12]. Also, the inhibition was 1% in data set [13]; 3% in [14]; 13% in data set [15]; 13% in data set [16]; 19% in data set [17]; 20% in data set [18]. Besides, the inhibition in data set [19] was 13%; in data set [20] it was -4%; in [21], -2%; in data set [22], 4%; in [23], 7%.
